Measured values: patent publication US11512224B2, “Water-based coating composition and production method of the same” (TOYOTA JIDOSHA KABUSHIKI KAISHA, priority 2018, dated 2022)

Assay: Solubility in water at 20° C.
Conditions: for Solubility of curing catalyst in water: under atmospheric pressure at 20° C.; for Solubility of organic solvent in water: 20° C.

Structure (SMILES): C1CCC2=NCCCN2CC1.Cc1ccc(S(=O)(=O)O)cc1 [DBU salt, diazabicycloundecene p-toluenesulfonate]
- Solubility of curing catalyst in water (listed as diazabicycloundecene p-toluenesulfonate, p-toluenesulfonate): ≥ 0.5 g/100 ml
- Solubility of curing catalyst in water (p-toluenesulfonate): 5 or greater g/100 ml

Structure (SMILES): CC(C)O [IPA, 2-propanol]
- Solubility of organic solvent in water: ≥ 10 or g/100 ml
- Solubility of organic solvent in water (listed as 2-propanol): ≥ 10 g/100 ml

Structure (SMILES): COCC(C)O (stereo not shown) [PGME, 1-methoxy-2-propanol]
- Solubility of organic solvent in water: ≥ 10 or g/100 ml
- Solubility of organic solvent in water (listed as 1-methoxy-2-propanol): ≥ 10 g/100 ml

Structure (SMILES): C1CCC2=NCCCN2CC1 [DBU, diazabicycloundecene]
- Solubility of curing catalyst in water: 5 or greater g/100 ml
- Solubility of curing catalyst in water (listed as diazabicycloundecene): ≥ 0.5 g/100 ml

Structure (SMILES): C1CN=C2CCCN2C1 [DBN, diazabicyclononene]
- Solubility of curing catalyst in water: 5 or greater g/100 ml
- Solubility of curing catalyst in water (listed as diazabicyclononene): ≥ 0.5 g/100 ml
